Assay results: DBAASP
≈ marks a conversion by molar mass, not a printed value.

Assays:
Test in all cases: ≥ marks a high value that may be exact or a test limit, other limits are often not marked, values filed in µg/mL are converted to µM
[1] = system: Vibrio cholerae
[2] = system: Enterococcus faecalis ATCC 29212
[3] = system: Bacillus subtilis MTCC 14416
[4] = system: Escherichia coli MG1655
[5] = system: Staphylococcus aureus MTCC 9542
[6] = system: Staphylococcus aureus ATCC 43300
[7] = system: Pseudomonas aeruginosa ATCC 27853
[8] = system: Escherichia coli J2210
[9] = system: Escherichia coli BW25113
[10] = system: Salmonella typhimurium SL1344
[11] = system: Escherichia coli JW2778 ΔygdD
[12] = system: Escherichia coli JJ2489
[13] = system: Escherichia coli JW0013
[14] = system: Escherichia coli MC1041
[15] = system: Salmonella enterica subsp. enterica serovar Enteritidis MH91989
[16] = system: Escherichia coli JW0368 ΔsbmA
[17] = system: Staphylococcus aureus CMCC 26074
[18] = system: Staphylococcus aureus ATCC 25923
[19] = system: Escherichia coli UB1005
[20] = system: Salmonella enterica subsp. enterica serovar Typhi CMCC 50071
[21] = system: Listeria monocytogenes CMCC 54004
[22] = system: Salmonella enterica subsp. enterica serovar Typhimurium ATCC 14028
[23] = system: Bacillus cereus CMCC 6303
[24] = system: Salmonella enterica subsp. enterica CMCC 47020
[25] = system: Salmonella enterica subsp. enterica serovar Typhimurium C77-31
[26] = system: Salmonella enterica subsp. enterica serovar Pullorum C79-13
[27] = system: Cronobacter sakazakii ATCC 29544
[28] = system: Staphylococcus aureus Newman
[29] = system: Staphylococcus aureus UAMS-1
[30] = system: Klebsiella pneumoniae ATCC 13883
[31] = system: Candida tropicalis ATCC 13803
[32] = system: Candida glabrata ATCC 2001
[33] = system: Pseudomonas aeruginosa PAO1
[34] = system: Staphylococcus aureus USA 300
[35] = system: Escherichia coli ATCC 25922
[36] = system: Bacillus subtilis 168
[37] = system: Staphylococcus aureus USA 400
[38] = system: Staphylococcus aureus MU50
[39] = system: Staphylococcus epidermidis 1457
[40] = system: Candida albicans ATCC 10231
[41] = system: Staphylococcus aureus USA 200
[42] = system: Salmonella typhimurium KCTC 2370
[43] = system: Micrococcus luteus ATCC 10240
[44] = system: Escherichia coli KCTC 2223
[45] = system: Staphylococcus aureus ATCC 15752
[46] = system: Staphylococcus epidermidis ATCC 12228
[47] = system: Staphylococcus aureus CMCC 26003
[48] = system: Escherichia coli CMCC 44102

## CC[C@H](C)[C@@H]1NC(=O)[C@H](CCCCN)NC(=O)[C@@H](NC(=O)[C@H](CC(C)C)NC(=O)[C@@H](NC(=O)[C@H](CCC(N)=O)NC(=O)[C@@H]2CCCN2C(=O)[C@H](CC(C)C)NC(=O)[C@H](Cc2ccccc2)NC(=O)[C@H](CC(N)=O)NC(=O)[C@H](C)NC(=O)[C@H](C)NC(=O)[C@@H](N)CC(C)C)[C@@H](C)CC)CSSC[C@@H](C(N)=O)NC(=O)[C@H](CCCCN)NC(=O)[C@H](CCCN=C(N)N)NC(=O)[C@H](C)NC1=O [LAANFLPQILCKIARKC]
[1]
  MIC: 6.57 µM (≈ 12.5 µg/mL)
[2]
  MIC: 52.6 µM (≈ 99.8 µg/mL)
[3]
  MIC: 26.3 µM (≈ 49.9 µg/mL)
[4]
  MIC: 6.57 µM (≈ 12.5 µg/mL)
[5]
  MIC: 3.23 µM (≈ 6.14 µg/mL)
[6]
  MIC: 26.3 µM (≈ 49.9 µg/mL)
[7]
  MIC: > 52.6 µM

## CC[C@H](C)[C@H](NC(=O)[C@H](Cc1ccc(O)cc1)NC(=O)[C@@H](NC(=O)[C@@H]1CCCN1C(=O)[C@H](CCCCN)NC(=O)[C@H](CC(N)=O)NC(=O)[C@H](CC(N)=O)NC(=O)CN)C(C)C)C(=O)N1CCC[C@H]1C(=O)N[C@@H](CCC(N)=O)C(=O)N1CCC[C@H]1C(=O)N[C@@H](CCCN=C(N)N)C(=O)N1CCC[C@H]1C(=O)N1CCC[C@H]1C(=O)N[C@@H](CCCN=C(N)N)C(=O)N1CCC[C@H]1C(=O)N[C@@H](CCCN=C(N)N)C(=O)N[C@@H](CC(C)C)C(=O)O [GNNKPVYIPQPRPPRPRL]
[8]
  MIC: 0.133 µM (≈ 0.279 µg/mL)
[9]
  MIC: 0.048 µM (≈ 0.101 µg/mL)
[10]
  MIC: 0.126 µM (≈ 0.265 µg/mL)
[11]
  MIC: 0.096 µM (≈ 0.202 µg/mL)
[12]
  MIC: 0.067 µM (≈ 0.141 µg/mL)
[13]
  MIC: 0.048 µM (≈ 0.101 µg/mL)
[14]
  MIC: 0.096 µM (≈ 0.202 µg/mL)
[15]
  MIC: 0.067 µM (≈ 0.141 µg/mL)
[16]
  MIC: 0.384 µM (≈ 0.806 µg/mL)

## CC[C@H](C)[C@H](NC(=O)[C@H](CCCN=C(N)N)NC(=O)[C@H](Cc1c[nH]c2ccccc12)NC(=O)[C@H](CCCCN)NC(=O)[C@@H](N)CCCN=C(N)N)C(=O)N[C@H](C(=O)N[C@H](C(=O)N[C@H](C(=O)N[C@@H](CCCN=C(N)N)C(=O)N[C@H](C(=O)N[C@@H](CCCN=C(N)N)C(=O)N[C@@H](CCCN=C(N)N)C(N)=O)C(C)C)[C@@H](C)CC)C(C)C)C(C)C [RKWRIVVIRVRR]
[17]
  MIC: ≥ 256 µM
[18]
  MIC: 128 µM (≈ 209 µg/mL)
[19]
  MIC: 8 µM (≈ 13.1 µg/mL)
[20]
  MIC: 8 µM (≈ 13.1 µg/mL)
[21]
  MIC: 2 µM (≈ 3.27 µg/mL)
[22]
  MIC: 32 µM (≈ 52.4 µg/mL)
[23]
  MIC: 16 µM (≈ 26.2 µg/mL)
[24]
  MIC: ≥ 64 µM
[25]
  MIC: ≥ 32 µM
[26]
  MIC: 8 µM (≈ 13.1 µg/mL)
[27]
  MIC: ≥ 32 µM

## CC[C@H](C)[C@H](NC(=O)CNC(=O)[C@H](CO)NC(=O)[C@@H](NC(=O)[C@H](CC(C)C)NC(=O)[C@H](CCCN=C(N)N)NC(=O)CNC(=O)[C@@H](NC(=O)[C@@H](NC(=O)[C@@H]1CCCN1C(=O)[C@H](CC(C)C)NC(=O)[C@@H](N)Cc1ccccc1)[C@@H](C)CC)C(C)C)[C@@H](C)CC)C(=O)N[C@@H](CC(C)C)C(N)=O [FLPIVGRLISGIL]
[28]
  MIC: 12.5 µM (≈ 17.5 µg/mL)
[29]
  MIC: 25 µM (≈ 34.9 µg/mL)
[30]
  MIC: ≥ 50 µM
[31]
  MIC: 8.8 µM (≈ 12.3 µg/mL)
[32]
  MIC: ≥ 50 µM
[33]
  MIC: > 50 µM
[34]
  MIC: 12.5 µM (≈ 17.5 µg/mL)
[35]
  MIC: > 50 µM
[36]
  MIC: ≥ 35.4 µM
[37]
  MIC: 12.5 µM (≈ 17.5 µg/mL)
[38]
  MIC: 12.5 µM (≈ 17.5 µg/mL)
[39]
  MIC: 12.5 µM (≈ 17.5 µg/mL)
[40]
  MIC: 50 µM (≈ 69.8 µg/mL)
[41]
  MIC: 25 µM (≈ 34.9 µg/mL)

## CC(C)C[C@H](NC(=O)[C@H](CCCCN)NC(=O)[C@H](CCC(N)=O)NC(=O)[C@H](CCCCN)NC(=O)[C@H](CC(C)C)NC(=O)[C@H](CC(C)C)NC(=O)[C@H](CCC(N)=O)NC(=O)[C@H](CC(C)C)NC(=O)[C@H](CC(C)C)NC(=O)[C@@H]1CCCN1C(=O)[C@H](CCCN=C(N)N)NC(=O)[C@H](CC(C)C)NC(=O)[C@H](CC(C)C)NC(=O)[C@H](CCCN=C(N)N)NC(=O)CNC(=O)CNC(=O)CNC(=O)[C@@H]1CCCN1C(=O)[C@@H]1CCCN1C(=O)CNC(=O)[C@H](CCCN=C(N)N)NC(=O)[C@@H](NC(=O)[C@H](CCCCN)NC(=O)[C@@H](N)CCCN=C(N)N)C(C)C)C(=O)N[C@@H](CCCN=C(N)N)C(=O)O [RKVRGPPGGGRLLRPLLQLLKQKLR]
[42]
  MIC: 4 µM (≈ 11.4 µg/mL)
[43]
  MIC: 0.5 µM (≈ 1.43 µg/mL)
[44]
  MIC: 2 µM (≈ 5.7 µg/mL)
[45]
  MIC: 2 µM (≈ 5.7 µg/mL)

## CC[C@H](C)[C@H](NC(=O)[C@H](CCCN=C(N)N)NC(=O)[C@H](CCCN=C(N)N)NC(=O)[C@H](CC(C)C)NC(=O)[C@H](Cc1ccccc1)NC(=O)[C@@H]1CCCN1C(=O)[C@H](CCCN=C(N)N)NC(=O)[C@H](CCSC)NC(=O)[C@@H](NC(=O)[C@H](CCCCN)NC(=O)[C@H](CCCCN)NC(=O)[C@H](CS)NC(=O)[C@@H](NC(=O)CNC(=O)[C@H](CCCN=C(N)N)NC(=O)[C@H](CC(C)C)NC(=O)[C@@H](NC(=O)[C@@H](N)CCCCN)[C@@H](C)CC)C(C)C)[C@@H](C)CC)C(=O)N[C@@H](CO)C(=O)N[C@@H](CCCCN)C(=O)N[C@@H](CC(=O)O)C(=O)N[C@H](C(=O)N[C@@H](CC(C)C)C(=O)N[C@H](C(=O)NCC(=O)N[C@@H](CCCCN)C(=O)N[C@@H](CCCCN)C(N)=O)[C@@H](C)O)[C@@H](C)CC [KILRGVCKKIMRPFLRRISKDILTGKK]
[46]
  MIC: 4 µM (≈ 12.8 µg/mL)
[47]
  MIC: 4 µM (≈ 12.8 µg/mL)
[48]
  MIC: 4 µM (≈ 12.8 µg/mL)
[7]
  MIC: 16 µM (≈ 51.2 µg/mL)
